Here are results for 2 molecules from PMC8065987, “Identification of Anti-Inflammatory and Anti-Proliferative Neolignanamides from Warburgia ugandensis Employing Multi-Target Affinity Ultrafiltration and LC-MS” (Pharmaceuticals, 2021).

One series addresses T1, 5-LOX (Homo sapiens, UniProt P09917).
T1 construct: purchased Cayman Chemical Co., Ltd. (Ann Arbor, MI, USA)
T1 sequence (P09917 1-674): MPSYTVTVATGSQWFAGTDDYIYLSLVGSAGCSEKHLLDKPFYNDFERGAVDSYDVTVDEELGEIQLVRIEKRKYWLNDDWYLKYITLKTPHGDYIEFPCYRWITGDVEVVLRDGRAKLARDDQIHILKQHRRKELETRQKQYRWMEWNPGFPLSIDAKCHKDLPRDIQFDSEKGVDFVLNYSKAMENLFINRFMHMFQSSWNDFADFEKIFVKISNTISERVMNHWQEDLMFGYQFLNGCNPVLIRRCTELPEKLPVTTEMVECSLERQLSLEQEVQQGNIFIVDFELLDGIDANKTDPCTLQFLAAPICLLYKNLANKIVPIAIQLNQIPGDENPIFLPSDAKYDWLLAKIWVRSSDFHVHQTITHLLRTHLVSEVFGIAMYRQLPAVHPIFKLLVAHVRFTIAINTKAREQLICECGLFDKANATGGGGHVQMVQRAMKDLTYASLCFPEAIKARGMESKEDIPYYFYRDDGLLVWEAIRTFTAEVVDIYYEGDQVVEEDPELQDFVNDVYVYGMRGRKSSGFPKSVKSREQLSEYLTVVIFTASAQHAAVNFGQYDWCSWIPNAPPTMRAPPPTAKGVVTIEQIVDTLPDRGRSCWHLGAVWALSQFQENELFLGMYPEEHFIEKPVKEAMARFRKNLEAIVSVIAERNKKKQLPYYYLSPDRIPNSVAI
In words: Affinity ultrafiltration HPLC-MS/MS (AUF-HPLC-MS/MS) of WE-P with 5-LOX. The settings on record: relative binding strength = Aactive/Asample × 100%; peak in WE-P; n = 3. The protocol: (§1) The relative binding strength (RBS) was employed to compare the variation of the correlated peak areas in the AUF-HPLC-UV chromatograms before and after incubation with enzymes to evaluate the affinity binding abilities between potential ligands and target enzymes. The RBS formula is expressed as: RBS = (Aactive/Asample) × 100%, where the Aactive represents the peak areas obtained from the WE-P samples incubated with COX-2, 5-LOX, Top I or Top II, respectively; the Asample represents the peak areas obtained from WE-P samples without ultrafiltration. […] Namely, the special binding capacities of peak 2 with COX-2, 5-LOX, Top I and Top II might be stronger than that of peak 1. […] Therefore, it could be preliminarily estimated that peak 1 and peak 2 were the main bioactive components in WE-P which were closely related to its anti-inflammatory and anti-proliferative activities. These compounds were then identified based on their MS/MS data, related references and NMR or UPLC-QTOF-MS/MS data of isolated compounds, and the results are shown in Table 2.
(§2) Affinity ultrafiltration screening was slightly modified and carried out according to some previous studies. Firstly, approximately 100 µL of WE-P (10.0 mg/mL) were incubated with 10 µL of enzymes (2 U, COX-2, 5-LOX, Top I or Top II), and 90 µL of Tris-HCl (pH = 7.8) at 37 °C in the darkness for 1 h. […]

A further series deals with Top I. In words: Affinity ultrafiltration HPLC-MS/MS (AUF-HPLC-MS/MS) of WE-P with Top I. The settings on record: relative binding strength = Aactive/Asample × 100%; peak in WE-P; n = 3. The protocol: as §1, §2
The subject of a further series is Top II. In words: Affinity ultrafiltration HPLC-MS/MS (AUF-HPLC-MS/MS) of WE-P with Top II. As to conditions: relative binding strength = Aactive/Asample × 100%; peak in WE-P; n = 3. The protocol: as §1, §2
Series [1] has as its system Hela cells. Kind of series: Cell proliferative assay (SRB), Hela. The series is classed as cell-based. The settings on record: Homo sapiens, 48 h, read-out: Anti-proliferative IC50, Hela cells. The protocol:
(§3) Human non-small cell lung adenocarcinoma cell line (A549) and human cervical cancer cell line (Hela) were obtained from the American Type Culture Collection (ATCC, Manassas, VA, USA) and maintained in Ham’s F-12K medium supplemented with 10% fetal bovine serum (FBS), 1% penicillin, and 1% streptomycin in a cell incubator under humidified conditions with 5% CO2 at 37 °C, and the procedures were slightly modified from previous method. To evaluate the proliferative activity of A549 cell line and Hela cell line, the SRB assay was carried out according to the manufacturer’s instructions (Beyotime, Shanghai, China). Briefly, these two cell lines were seeded into 96-well plates at a density of 1.0 × 10^4 per well. After 24 h incubation, the tested samples were dissolved in the DMSO and sequentially diluted with cell culture medium and added to each well at the specified concentrations. Cell viability was assessed by SRB 48 h later. Absorbances was measured by a Tecan microplate reader (Tecan Infinite M200 Pro, Tecan Group Ltd., Männedorf, Switzerland) at a wavelength of 540 nm. The experiments were performed in triplicate. The anti-proliferative activities were expressed as IC50. […] The data were expressed as mean ± standard deviation (SD) of three replicates.

Series [2] relates to A549 cells. Kind of series: Cell proliferative assay (SRB), A549. The format is cell-based. The settings on record: Homo sapiens, 48 h, read-out: Anti-proliferative IC50, A549 cells. The procedure:
as §3

The subject of series [3] is human peripheral blood mononuclear cells (PBMCs) stimulated by lipopolysaccharide (LPS). Also on record: method as in PMID 32877711. As to conditions: 100 µM; cited from earlier work.
The subject of the next series is RAW 264.7 cell line. Further details: method as in doi:10.1016/j.phytol.2019.01.020. The settings on record: LPS-stimulated RAW 264.7; read-out: Inhibition of NO production IC50; cited from earlier work.
Series [4] relates to Hela cells. Also on record: method as in PMID 33301798. The settings on record: previous study; read-out: Anti-proliferative IC50, Hela cells; cited from earlier work.
In series [5] the test system is human mammary adenocarcinoma (MCF-7) cells. Further details: method as in PMID 33301798. As to conditions: previous study; read-out: Anti-proliferative IC50, MCF-7 cells; cited from earlier work.
Series [6] has as its system A549 cells. Further details: method as in PMID 33301798. The settings on record: previous study; read-out: Anti-proliferative IC50, A549 cells; cited from earlier work.
The subject of a further series is Hela cell line. Further details: method as in PMID 32212861. As to conditions: previous study; cited from earlier work.
In series [7] the test system is LNCaP human prostate cancer cell. Also on record: method as in PMID 11858758. The settings on record: previous study; cited from earlier work.
A further series deals with MCF-7. Also on record: method as in PMID 27504537. The settings on record: 72 h; read-out: GI50 (the 50% growth inhibition in 72 h), MCF-7; cited from earlier work.
The test system of series [8] is human prostate cancer (PC-3) cells. Also on record: method as in PMID 27504537. The settings on record: 72 h; read-out: GI50 (the 50% growth inhibition in 72 h), PC-3; cited from earlier work.
Series [9] has as its system human colorectal adenocarcinoma (Caco-2) cells. Further details: method as in PMID 27504537. As to conditions: inactive or poorly active; cited from earlier work.
The target of series [10] is T2, COX-2 (Homo sapiens, UniProt P35354).
T2 sequence (P35354 18-604): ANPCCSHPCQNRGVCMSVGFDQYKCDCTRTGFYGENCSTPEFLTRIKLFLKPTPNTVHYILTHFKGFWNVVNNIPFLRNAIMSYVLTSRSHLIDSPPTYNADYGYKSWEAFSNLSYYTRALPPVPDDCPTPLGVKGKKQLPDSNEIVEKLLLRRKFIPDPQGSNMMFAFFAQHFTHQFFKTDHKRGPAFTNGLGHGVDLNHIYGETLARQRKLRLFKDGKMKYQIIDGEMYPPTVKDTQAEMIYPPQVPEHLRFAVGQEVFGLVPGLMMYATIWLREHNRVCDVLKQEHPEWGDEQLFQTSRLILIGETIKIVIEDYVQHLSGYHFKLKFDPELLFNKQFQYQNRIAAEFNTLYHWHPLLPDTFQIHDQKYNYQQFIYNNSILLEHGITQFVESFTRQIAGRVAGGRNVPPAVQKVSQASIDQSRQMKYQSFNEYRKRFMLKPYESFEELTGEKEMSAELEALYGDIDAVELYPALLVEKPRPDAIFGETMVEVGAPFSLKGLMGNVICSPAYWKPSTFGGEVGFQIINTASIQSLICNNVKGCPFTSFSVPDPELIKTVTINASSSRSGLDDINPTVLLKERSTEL
In words: In vitro COX-2 inhibitory assay (COX-2 (human) inhibitor screening assay kit, fluorescence). The format is biochemical. Also on record: purchased Beyotime Biotechnology (Shanghai, China) S0168. As to conditions: triplicate; read-out: COX-2 inhibition IC50 (isolated compounds). The protocol: Thirdly, 10 µL COX-2 probe was added into each well. […] The experiments were performed in triplicate.

For series [11], the target named is T2, COX-2. In words: Affinity ultrafiltration HPLC-MS/MS (AUF-HPLC-MS/MS) of WE-P with COX-2. Further details: purchased Wuhan Antgene Biotechnology Co., Ltd. (Wuhan, China). As to conditions: relative binding strength = Aactive/Asample × 100%; peak in WE-P; n = 3. The protocol: as §1, §2

Each structure is given as a SMILES string. Like-named read-outs stand apart in the source and are kept apart here. Bounds are passed on as bounds.

Regarding `COc1cc(C2Oc3c(OC)cc(/C=C/C(=O)NCCc4ccc(O)cc4)cc3C2C(=O)NCCc2ccc(O)cc2)ccc1O` (stereo not drawn) [Compound 2, N-trans-grossamide], on 5-LOX, the “UF-RBS (%) 5-LOX” value came to 42.00 ± 1.26%. The “UF-RBS (%) Top I” value in the series on Top I worked out at 76.2 ± 5.20%. For the same molecule, the “UF-RBS (%) Top II” value in the series with Top II is given as 58.57 ± 3.82%. For the same molecule, the IC50 was 72.8 ± 0.839 µM in the series with Hela cells [1]; more than 100 µM in the series with A549 cells [2]; 52.5 ± 6.1 µM in the series on RAW 264.7 cell line; 20.1 ± 3.05 µM with Hela cells [4]; 11.4 ± 1.62 µM in series [5]; 13.5 ± 3.66 µM with A549 cells [6]. The IC50 on COX-2 [10] was 1.95 ± 0.381 µM. Moreover, the “Release of GM-CSF” value in series [3] is 1.61 % of LPS control. Also, the “Release of IL-1β” value in [3] was 2.14 % of LPS control. In series [3], the “Release of IL-2” value is on record as 11.61 % of LPS control. Also, the “Release of TNF-α” value in series [3] is on record as 0.06 % of LPS control. In the series with Hela cell line, the “Anti-proliferative activity on Hela cell line” value is “moderate anti-proliferative activity”. For the same molecule, the “Cytotoxicity in cultured LNCaP cells” value in series [7] is “moderate cytotoxicity”. The GI50 in the series with MCF-7 was 24 µM; in series [8] it was 21 µM; in [9] it was more than 100 µM. Also, the “UF-RBS (%) COX-2” value at COX-2 [11] is reported as 27.39 ± 1.58%.
Consider `COc1cc(C2Oc3c(OC)cc(/C=C\C(=O)NCCc4ccc(O)cc4)cc3C2C(=O)NCCc2ccc(O)cc2)ccc1O` (stereo not drawn) [Compound 1, N-cis-grossamide], for which, on 5-LOX, the “UF-RBS (%) 5-LOX” value is recorded as 16.74 ± 0.65%. The “UF-RBS (%) Top I” value in the series on Top I turned out to be 34.25 ± 2.81%. Besides, the “UF-RBS (%) Top II” value in the series on Top II amounted to 24.53 ± 1.54%. Also, the IC50 in the series with Hela cells [1] was 84.4 ± 1.79 µM; with A549 cells [2], more than 100 µM; at COX-2 [10], 4.41 ± 0.249 µM. The “UF-RBS (%) COX-2” value at COX-2 [11] turned out to be 20.15 ± 0.12%.
